# Data taken from patent US8772274B1, “Anti-cancer compositions and methods” (The Penn State Research Foundation, priority 2008, dated 2014).
# Counter-ions that a name gives are not always drawn. Like-named read-outs stand apart in the source and are kept apart here.
# Columns and labels:
# [1] = test system: A549, Caco-2, HT-1080, PC-3, OVCAR-3, MDA-MB-231, WM115; test: MTS viability, all cancer cell lines tested (summary); type: cell-based, human
# Description: Growth inhibitory effects on cultured cells from human vertical growth phase (VGP) melanoma cell line WM115, Lung adenocarcinoma (A549), fibrosarcoma (HT-1080), prostate adenocarcinoma (PC-3), ovarian carcinoma (OVCAR-3), and breast adenocarcinoma (MDA-MB-231) are plated in 96 well plates at a density of 5×10^3 cells/well in 100 μl media. […] Dose response curves for each compound are generated and the IC50 values (μM) determined using GraphPad Prism software. Each experiment is replicated at least 3 times and the average IC50 (μM) values with standard error represented.
# UACC 903 melanoma tumors [2] = test: Tumorigenicity assessment, UACC 903 xenograft, i.p. treatment; type: in vivo, nude mice; details: day 24; i.p. 0.315 moles (2.5 ppm selenium) Monday, Wednesday, Friday for 3 weeks
# Description: (§1) Tumor kinetics are measured by subcutaneous injection of 5×10^6 UACC 903 or 2.5×10^61205 Lu cells in 0.2 ml of DMEM containing 10% FBS above left and right rib cages of 4-6 week old female nude mice (Harlan Sprague Dawley, Indianapolis, Ind.). Six days later, a fully vascularized tumor has developed and mice are randomly placed in control DMSO or experimental (PBIT or PBISe) groups (n=5 animals; 10 tumors total) followed by i.p. treatment with PBIT ([…]) or PBISe ([…]; equivalent to 2.5 ppm selenium per 20 g mouse) on Monday, Wednesday and Friday for 3 weeks. Dimensions of developing tumors and body weight are measured.
# WM115 melanoma cell line = test: MTS cell viability assay, WM115; details: for IC50: Homo sapiens, WM-115, 24 h
# Description: (§2) 5×10^3 cells per well in 100 μl DMEM-10% FBS are grown in a 96-well plate for 36 or 72 hours, respectively for melanoma (UACC 903, 1205 Lu and WM115) and human fibroblast (FF2441) cell lines and treated with either PBS vehicle or increasing concentrations (3.5-21 μM) of PBIT, PBISe, PEIT or PEISe for 24 hours. Cellular viability compared to control treated cells is measured using the MTS assay (Promega, Madison, Wis.). IC50 (μM) values for each compound in respective cell lines is determined from three independent experiments using GraphPad Prism version 4.01 (GraphPad, San Diego, Calif.), bars, SEM.
# Growth inhibitory effects on cultured cells from human vertical growth phase (VGP) melanoma cell line WM115, Lung adenocarcinoma (A549), fibrosarcoma (HT-1080), prostate adenocarcinoma (PC-3), ovarian carcinoma (OVCAR-3), and breast adenocarcinoma (MDA-MB-231) are plated in 96 well plates at a density of 5×10^3 cells/well in 100 μl media. The cells are treated 36 hours later with PBISe (0.19-100 μM), PBIT (10-100 μM), PEIT 10-100 μM), or PEISe (10-100 μM) for 24 h and cell viability measured using MTS assay. Dose response curves for each compound are generated and the IC50 values (μM) determined using GraphPad Prism software. Each experiment is replicated at least 3 times and the average IC50 (μM) values with standard error represented.
# [3] = test system: iNOS (total nitrate+nitrite in Caco-2 cells); test: Nitrite estimation (nitrate/nitrite colorimetric assay); type: cell-based; details: 2-4 μM, 72 hours
# Description: Nitrite content in cell culture media is determined using a nitrate/nitrite colorimetric assay kit (Cayman Chemical Company, Ann Arbor, Mich.) essentially as described in Salvucci, O. et al., Cancer Res 2001; 61:318-26. Caco-2 cells (1×10^6) are plated in 60 mm culture dishes in advanced DMEM containing 10% heat treated FBS for 12 hours, growing cells conditioned with phenol-red free DMEM containing 0.5% FBS for an additional 12 hours. Cells are then treated with increasing concentrations of PBIT (40 and 80 μM) or PBISe (2 and 4 μM) dissolved in phenol-red free DMEM (2 ml) containing 0.5% FBS for 72 hours. Culture supernatants are collected and total nitrite (nitrate+nitrite) measured by incubating 80 μL supernatant with enzyme cofactor mixture (10 μL) and nitrate reductase (10 μL) for 2 hours. Total nitrite is measured by the addition of Griess reagent-I and II (50 μL each). A nitrate standard curve (5-35 μM) is simultaneously prepared. Total nitrite present in media alone is subtracted from all experimental values and represented as micromolar nitrite produced following each treatment.
# [4] = Systemic toxicity assessment, i.p. treatment; type: in vivo; details: nude mice, 3 weeks
# Description: as §1
# Systemic toxicity of PBISe in animals is evaluated in nude mice. Mice are exposed to PBISe or PBIT ([…]), or vehicle DMSO, 3 times per week and animals weighed to ascertain possible toxicity. 4-6 week old female nude mice (Harlan Sprague Dawley, Indianapolis, Ind.) are injected i. p. with either control DMSO vehicle, PBIT or PBISe (0.315 μmoles each) for 3 weeks by following the regime used for tumorigenicity. Blood is then collected from each animal in plasma separator tubes with lithium heparin (BD Microtainer, BD, Franklin Lakes, N.J.) following cardiac puncture and analyzed for SGOT, SGPT, alkaline phosphatase, glucose and creatinine to ascertain liver, heart, kidney and pancreas related toxicity. For morphological examination of blood cells, whole blood is collected in microtainer tubes containing K2EDTA (BD Microtainer, BD, Franklin Lakes, N.J.) and RBC, WBC, lymphocytes, monocytes, eosinophils, platelets, total hemoglobin and hematocrit percentage analyzed. Blood is also microscopically examined for segregates, polychromatin bodies, and smudge cells. A portion of vital organs—liver, heart, kidney, intestine, pancreas and adrenal—from each animal is formalin fixed and paraffin-embedded to examine for toxicity-associated changes in cell morphology and organization following H&E staining. […] Thus, PBISe treatment has negligible associated systemic toxicity at the concentrations examined.
# [5] = test system: HT-29 colorectal adenocarcinoma cells; test: MTS cell viability assay, HT-29; type: cell-based; details: Homo sapiens; HT-29; 24-72 hours; MTS; read-out: Inhibition of growth IC50, HT-29 (Table II)
# [6] = test system: UACC 903 melanoma cell line; test: MTS cell viability assay, UACC 903; type: cell-based; details: Homo sapiens; UACC 903 melanoma; 24 hours treatment; MTS; read-out: IC50, UACC 903 (Table I)
# Description: Cellular viability compared to control treated cells is measured using the MTS assay (Promega, Madison, Wis.).
# [7] = test system: normal human fibroblast cells (FF2441); test: MTS cell viability assay, normal fibroblasts; type: cell-based; details: Homo sapiens, FF2441, read-out: Inhibition of growth IC50, Fibroblast cells (FF2441) (Table II)
# Description: as §2
# Viability of colon adenocarcinoma cells (Caco-2, HT 29, HCT 116, SW 480) and normal fibroblast cells (FF2441) treated with PBIT (1), PBISe (2), PEIT (3) or PEISe (4) is compared. The IC50 value is evaluated by treating with increasing concentrations of PBIT, PEIT, PEISe (10-100 μM) or PBISe (1.6-50 μM) for 24-72 hours and the number of viable cell are quantified using MTS (Promega, Wis.).
# [8] = test system: WM35-GFP and UACC 903-GFP melanoma tumors in reconstructed skin; test: Topical treatment of skin reconstructs containing melanoma cells; type: cell-based, human; details: 8 days
# Description: Generation of skin containing melanocytic lesions is briefly described. […] Mixture is then aliquoted into 6 or 12 well plates and incubated at 37° C. for 3 hours. […] One milliliter of cell suspension is added to each well on top of the dermal layer. Following two days growth, reconstructed skin is transferred onto wire grids and fed via diffusion from E-media below the platforms.
# Skin reconstructs containing melanoma cells are treated topically with increasing concentrations (5, 10, 15 and 20 μM in 200 μL PBS) of PBIT or PBISe. Eight days later control vehicle PBS treated, PBIT and PBISe exposed skins are fixed in paraformaldehyde and stored in 0.5% EDTA.
# Beginning on day 8 of culture, the reconstructed skins containing melanoma tumors are treated with increasing concentrations of PBISe (5, 10, 15 and 20 μM) or PBIT (15 and 20 μM) in 200 μL of vehicle PBS for 8 days and the size of developing tumors, in terms of area occupied by GFP, is measured using fluorescence microscopy.
# UACC 903 melanoma tumors [9] = test: Topical application on melanoma tumor growth in vivo; details: topical daily 0.0945 umoles (1.5 ppm selenium, 5.12 mg/kg); day 17 through day 29
# Description: UACC 903 melanoma cells (0.25×10^5/site) are subcutaneously injected into left and right flanks of 4-6 weeks old female nude mice (n=4) and 24 h later PBIT, PBISe (0.0945 umoles, 1.5 ppm selenium equivalent to 5.12 mg/kg body weight) or vehicle control (acetone) is applied topically for 29 days. Sizes of developing tumors are measured and average sizes±S.E.M. (in mm^3) plotted. A minimum of 5 mice per group is used for the topical treatment.
# UACC 903 melanoma cells = test: Cellular proliferation, BrdU ELISA; type: cell-based; details: 2 μM, 24 hours
# Description: Cellular proliferation and apoptosis rates are measured by seeding 5×10^3 cells in 96-well plates, followed by treatment for 24 hours with PBISe or PBIT (0.5-10.5 μM). Proliferation and apoptosis rates are measured using a BrdU ELISA kit (Roche Applied Sciences, Indianapolis, Ind.) and Apo-ONE Homogenous caspase-3/7 Assay kit (Promega, Madison, Wis.), respectively, (Madhunapantula S V, et al., Cancer Res 2007; 67:3626-36).
smiles,measurement,setting,value
"N=C(N)[Se]CCc1ccc(CC[Se]C(=N)N)cc1 [PBISe, s,s′-1,4-phenylene-bis(1,2-ethanediyl)bis-isoselenourea dihydrobromide]","fold more potent at decreasing cell viability compared to PBIT, all cancer cell lines tested","[1]; A549, Caco-2, HT-1080, PC-3, OVCAR-3, MDA-MB-231, WM115",> 10 fold
same,IC50,"[1]; Homo sapiens, read-out: concentration decreasing cell viability by 50% (IC50), cancer cell lines of Table III",8 to 10 µM
same,"difference in tumor volume compared to control DMSO or PBIT, UACC 903",UACC 903 melanoma tumors [2],~30%
same,IC50,"WM115 melanoma cell line; read-out: IC50, WM115 (Table I)",9.7 ± 1.4 µM
same,IC50,"WM115 melanoma cell line; read-out: Inhibition Cancer Cells IC50, WM115 (Table III)",9.7 ± 1.4 µM
same,"Fold increase in efficacy (PBIT/PBISe), WM115","WM115 melanoma cell line; ratio of IC50 PBIT/PBISe, WM115",>10 fold
same,total nitrate+nitrite production,[3],reduces
same,"blood parameters (SGOT, SGPT, alkaline phosphatase, blood urea, glucose and creatinine)",[4]; i.p. 0.315 μmoles,"did not detect significant liver, kidney or cardiac related toxicity"
same,histological examination of H&E stained vital organ sections,[4]; i.p. 0.315 μmoles,did not significantly change cell morphology or organ structure
same,body weight during treatment,[4]; i.p. 3 times per week,No significant difference
same,IC50,[5],3.84 ± 0.44 µM
same,IC50,[6],8.1 ± 0.8 µM
same,IC50,[7],17.1 ± 0.59 µM
same,morphology of constituent cells of skin reconstructs,"[8]; 20 uM topical, H&E",no toxicity
same,difference in tumor size compared to vehicle PBS control and PBIT treated skins,"[8]; 15 and 20 μM, topical, area occupied by GFP, WM35 and UACC 903",80-90%
same,decrease in tumor volume versus vehicle acetone or PBIT treated mice,UACC 903 melanoma tumors [9],50%
same,reduction of cellular proliferative capacity compared to PBS vehicle or PBIT treated cells,UACC 903 melanoma cells,~90%
